Results on 27 molecules are retold here after patent US10328077B2 (CELGENE CORPORATION, priority 2016, dated 2019).

Structures are written as SMILES.

Experiment [1] relates to CD11b expression in THP-1 (AML) cells. As to the kind of experiment: LSD-1 CD11b cellular assay (flow cytometry). The following applies: Homo sapiens, THP-1, 96 h, read-out: THP-1 IC50.
Experiment [2] deals with human LSD-1 (Homo sapiens (Human), UniProt O60341). As to the kind of experiment: In vitro enzyme inhibition assay LSD-1 (TR-FRET). It counts as biochemical. The following applies: TR-FRET, H3K4me1-biotin labeled peptide. From the text: This assay determines the ability of a test compound to inhibit LSD-1 demethylase activity.
The enzymatic assay of LSD-1 activity is based on Time Resolved-Fluorescence Resonance Energy Transfer (TR-FRET) detection.

The term IC50 denotes the concentration that gives 50% inhibition. For the molecule `CNCC1CN(c2nc(-c3ccc(C#N)c(F)c3)c(-c3ccc(OC)cc3)c(=O)n2C)C1` [Example 70, 2-fluoro-4-[5-(4-methoxy-phenyl)-1-methyl-2-(3-methylaminomethyl-azetidin-1-yl)-6-oxo-1,6-dihydro-pyrimidin-4-yl]-benzonitrile], the 50% inhibitory concentration (IC50) in experiment [1] and in experiment [2] was below 100 nM throughout.
As for `CN(C)C1CCN(c2nc(-c3ccc(C#N)c(F)c3)c(-c3ccc4c(cnn4C)c3)c(=O)n2C)CC1` [Example 72, 4-[2-(4-dimethylamino-piperidin-1-yl)-1-methyl-5-(1-methyl-1H-indazol-5-yl)-6-oxo-1,6-dihydro-pyrimidin-4-yl]-2-fluoro-benzonitrile], the 50% inhibitory concentration (IC50) in experiment [1] and in experiment [2] was below 100 nM in each case.
For `Cn1c(N2CCC(N)CC2)nc(-c2ccc(C#N)c(F)c2)c(-c2ccc3[nH]ccc3c2)c1=O` [Example 73, 4-[2-(4-amino-piperidin-1-yl)-5-(1H-indol-5-yl)-1-methyl-6-oxo-1,6-dihydro-pyrimidin-4-yl]-2-fluoro-benzonitrile], the IC50 in experiment [1] and in experiment [2] was below 100 nM throughout.
As to `Cn1c(N2CCC(N)CC2)nc(-c2ccc(C#N)c(F)c2)c(-c2ccc3ccn(C)c3c2)c1=O` [Example 76, 4-[2-(4-amino-piperidin-1-yl)-1-methyl-5-(1-methyl-1H-indol-6-yl)-6-oxo-1,6-dihydro-pyrimidin-4-yl]-2-fluoro-benzonitrile], the half-inhibitory concentration (IC50) in experiment [1] and in experiment [2] was below 100 nM throughout.
`Cn1c(N2CCC(N)CC2)nc(-c2ccc(C#N)c(F)c2)c(-c2ccc3cn[nH]c3c2)c1=O` [Example 77, 4-[2-(4-amino-piperidin-1-yl)-5-(1H-indazol-6-yl)-1-methyl-6-oxo-1,6-dihydro-pyrimidin-4-yl]-2-fluoro-benzonitrile]: the half-maximal inhibitory concentration (IC50) in experiment [1] and in experiment [2] was below 100 nM each time.
On to `COc1ccc(-c2c(-c3ccc(C#N)c(F)c3)nc(N3CC[C@@H](N)[C@@H](F)C3)n(C)c2=O)cc1` [Example 78, 4-[2-((4R, 3S)-4-amino-3-fluoro-piperidin-1-yl)-5-(4-methoxy-phenyl)-1-methyl-6-oxo-1,6-dihydro-pyrimidin-4-yl]-2-fluoro-benzonitrile], for which the half-inhibitory concentration (IC50) in experiment [1] and in experiment [2] was below 100 nM throughout.
Turning to `COc1ccc(-c2c(-c3ccc(C#N)c(F)c3)nc(N3CC[C@H](N)[C@H](F)C3)n(C)c2=O)cc1` [Example 79, 4-[2-((4S, 3R)-4-amino-3-fluoro-piperidin-1-yl)-5-(4-methoxy-phenyl)-1-methyl-6-oxo-1,6-dihydro-pyrimidin-4-yl]-2-fluoro-benzonitrile], the half-inhibitory concentration (IC50) in experiment [1] and in experiment [2] was below 100 nM each time.
For the molecule `CN(C)C1CCN(c2nc(-c3ccc(C#N)c(F)c3)c(-c3ccc4cn(C)nc4c3)c(=O)n2C)CC1` [Example 80, 4-[2-(4-dimethylamino-piperidin-1-yl)-1-methyl-5-(2-methyl-2H-indazol-6-yl)-6-oxo-1,6-dihydro-pyrimidin-4-yl]-2-fluoro-benzonitrile], the 50% inhibitory concentration (IC50) in experiment [1] and in experiment [2] was below 100 nM in each case.
Turning to `CNC1CCN(c2nc(-c3ccc(C#N)c(F)c3)c(-c3ccc(N(C)C)nc3)c(=O)n2C)CC1` [Example 83, 4-[5-(6-dimethylamino-pyridin-3-yl)-1-methyl-2-(4-methylamino-piperidin-1-yl)-6-oxo-1,6-dihydro-pyrimidin-4-yl]-2-fluoro-benzonitrile], the IC50 in experiment [1] and in experiment [2] was below 100 nM in each case.
Take `CN(C)C1CCN(c2nc(-c3ccc(C#N)c(F)c3)c(-c3ccc4cn[nH]c4c3)c(=O)n2C)CC1` [Example 84, 4-[2-(4-dimethylamino-piperidin-1-yl)-5-(2H-indazol-6-yl)-1-methyl-6-oxo-1,6-dihydro-pyrimidin-4-yl]-2-fluoro-benzonitrile]: the IC50 in experiment [1] and in experiment [2] was below 100 nM throughout.
In the case of `CNC1CCN(c2nc(-c3ccc(C#N)c(F)c3)c(-c3ccc4c(cnn4C)c3)c(=O)n2C)CC1` [Example 87, 2-fluoro-4-[1-methyl-2-[4-(methylamino)piperidin-1-yl]-5-(1-methylindazol-5-yl)-6-oxopyrimidin-4-yl] benzonitrile], the half-inhibitory concentration (IC50) in experiment [1] and in experiment [2] was below 100 nM throughout.
As for `Cn1c(N2CCC(N)CC2)nc(-c2ccc(C#N)c(F)c2)c(-c2ccc(N)cc2)c1=O` [Example 89, 4-[5-(4-aminophenyl)-2-(4-aminopiperidin-1-yl)-1-methyl-6-oxopyrimidin-4-yl]-2-fluorobenzonitrile], the concentration for half-maximal inhibition (IC50) in experiment [1] and in experiment [2] was below 100 nM throughout.
Regarding `CNc1ccc(-c2c(-c3ccc(C#N)c(F)c3)nc(N3CCC(N)CC3)n(C)c2=O)cc1` [Example 90, 4-[2-(4-aminopiperidin-1-yl)-1-methyl-5-[4-(methylamino)phenyl]-6-oxopyrimidin-4-yl]-2-fluorobenzonitrile], the half-maximal inhibitory concentration (IC50) in experiment [1] and in experiment [2] was below 100 nM throughout.
On to `CNc1ccc(-c2c(-c3ccc(C#N)c(F)c3)nc(N3CCC(N)CC3)n(C)c2=O)cc1F` [Example 91, 4-[2-(4-aminopiperidin-1-yl)-5-[3-fluoro-4-(methylamino)phenyl]-1-methyl-6-oxopyrimidin-4-yl]-2-fluorobenzonitrile], for which the IC50 in experiment [1] and in experiment [2] was below 100 nM in each case.
Turning to `COc1ccc(-c2c(-c3ccc(C#N)c(F)c3)nc(N3CCC(N(C)C)CC3)n(C)c2=O)cn1` [Example 92, 4-[2-[4-(dimethylamino)piperidin-1-yl]-5-(6-methoxypyridin-3-yl)-1-methyl-6-oxopyrimidin-4-yl]-2-fluorobenzonitrile], the concentration for half-maximal inhibition (IC50) in experiment [1] and in experiment [2] was below 100 nM in each case.
Consider `CCOc1ncc(-c2c(-c3ccc(C#N)c(F)c3)nc(N3CCC(N)CC3)n(C)c2=O)cc1F` [Example 93, 4-[2-(4-aminopiperidin-1-yl)-5-(6-ethoxy-5-fluoropyridin-3-yl)-1-methyl-6-oxopyrimidin-4-yl]-2-fluorobenzonitrile], for which the IC50 in experiment [1] and in experiment [2] was below 100 nM throughout.
As for `CCOc1ccc(-c2c(-c3ccc(C#N)c(F)c3)nc(N3CCC(N)CC3)n(C)c2=O)cn1` [Example 94, 4-[2-(4-aminopiperidin-1-yl)-5-(6-ethoxypyridin-3-yl)-1-methyl-6-oxopyrimidin-4-yl]-2-fluorobenzonitrile], the half-maximal inhibitory concentration (IC50) in experiment [1] and in experiment [2] was below 100 nM each time.
In the case of `CCOc1ccc(-c2c(-c3ccc(C#N)c(F)c3)nc(N3CCC(N)CC3)n(C)c2=O)cc1` [Example 95, 4-[2-(4-aminopiperidin-1-yl)-5-(4-ethoxyphenyl)-1-methyl-6-oxopyrimidin-4-yl]-2-fluorobenzonitrile], the IC50 in experiment [1] and in experiment [2] was below 100 nM each time.
For `Cn1c(N2CCC(N)CC2)nc(-c2ccc(C#N)c(F)c2)c(-c2ccc(OCCO)cc2)c1=O` [Example 96, 4-[2-(4-aminopiperidin-1-yl)-5-[4-(2-hydroxyethoxy)phenyl]-1-methyl-6-oxopyrimidin-4-yl]-2-fluorobenzonitrile], the IC50 in experiment [1] and in experiment [2] was below 100 nM in each case.
With `Cn1c(N2CCC(N)CC2)nc(-c2ccc(C#N)cc2)c(-c2ccc(OCCO)cc2)c1=O` [Example 97, 4-[2-(4-aminopiperidin-1-yl)-5-[4-(2-hydroxyethoxy)phenyl]-1-methyl-6-oxopyrimidin-4-yl]benzonitrile], the IC50 in experiment [1] and in experiment [2] was below 100 nM in each case.
For `COCCOc1ccc(-c2c(-c3ccc(C#N)c(F)c3)nc(N3CCC(N)CC3)n(C)c2=O)cc1` [Example 98, 4-[2-(4-aminopiperidin-1-yl)-5-[4-(2-methoxyethoxy)phenyl]-1-methyl-6-oxopyrimidin-4-yl]-2-fluorobenzonitrile], the half-maximal inhibitory concentration (IC50) in experiment [1] and in experiment [2] was below 100 nM each time.
For the molecule `Cn1c(N2CCC(N)CC2)nc(-c2ccc(C#N)c(F)c2)c(-c2ccc(CCO)cc2)c1=O` [Example 99, 4-[2-(4-aminopiperidin-1-yl)-5-[4-(2-hydroxyethyl)phenyl]-1-methyl-6-oxopyrimidin-4-yl]-2-fluorobenzonitrile], the IC50 in experiment [1] and in experiment [2] was below 100 nM each time.
Turning to `Cn1c(N2CCC(N)CC2)nc(-c2ccc(C#N)c(F)c2)c(-c2ccc(CO)cc2)c1=O` [Example 100, 4-[2-(4-aminopiperidin-1-yl)-5-[4-(hydroxymethyl)phenyl]-1-methyl-6-oxopyrimidin-4-yl]-2-fluorobenzonitrile], the half-inhibitory concentration (IC50) in experiment [1] and in experiment [2] was below 100 nM throughout.
Take `Cn1c(N2CCC(N)CC2)nc(-c2ccc(C#N)c(F)c2)c(-c2cccc(F)c2)c1=O` [Example 102, 4-[2-(4-aminopiperidin-1-yl)-5-(3-fluorophenyl)-1-methyl-6-oxopyrimidin-4-yl]-2-fluorobenzonitrile]: the IC50 in experiment [1] and in experiment [2] was below 100 nM each time.
In the case of `Cn1c(N2CCC(N)CC2)nc(-c2ccc(C#N)c(F)c2)c(-c2cc(F)cc(F)c2)c1=O` [Example 103, 4-[2-(4-aminopiperidin-1-yl)-5-(3,5-difluorophenyl)-1-methyl-6-oxopyrimidin-4-yl]-2-fluorobenzonitrile], the half-inhibitory concentration (IC50) in experiment [1] and in experiment [2] was below 100 nM in each case.
As for `Cn1c(N2CCC(N)CC2)nc(-c2ccc(C#N)c(F)c2)c(-c2ccc(F)c(F)c2)c1=O` [Example 104, 4-[2-(4-aminopiperidin-1-yl)-5-(3,4-difluorophenyl)-1-methyl-6-oxopyrimidin-4-yl]-2-fluorobenzonitrile], the IC50 in experiment [1] and in experiment [2] was below 100 nM throughout.
Turning to `Cn1c(N2CCC(N)CC2)nc(-c2ccc(C#N)c(F)c2)c(-c2ccc(S(C)(=O)=O)cc2)c1=O` [Example 105, 4-[2-(4-aminopiperidin-1-yl)-1-methyl-5-(4-methylsulfonylphenyl)-6-oxopyrimidin-4-yl]-2-fluorobenzonitrile], the IC50 in experiment [1] and in experiment [2] was below 100 nM in each case.
